Data on 16 molecules can be found in ChEMBL document CHEMBL1136821, “Modelling of carbonic anhydrase inhibitory activity of sulfonamides using molecular negentropy” (Bioorg Med Chem Lett, 2003).

One experiment deals with T1, Carbonic anhydrase 4 (Bos taurus, UniProt Q95323).
T1 sequence (Q95323 whole entry): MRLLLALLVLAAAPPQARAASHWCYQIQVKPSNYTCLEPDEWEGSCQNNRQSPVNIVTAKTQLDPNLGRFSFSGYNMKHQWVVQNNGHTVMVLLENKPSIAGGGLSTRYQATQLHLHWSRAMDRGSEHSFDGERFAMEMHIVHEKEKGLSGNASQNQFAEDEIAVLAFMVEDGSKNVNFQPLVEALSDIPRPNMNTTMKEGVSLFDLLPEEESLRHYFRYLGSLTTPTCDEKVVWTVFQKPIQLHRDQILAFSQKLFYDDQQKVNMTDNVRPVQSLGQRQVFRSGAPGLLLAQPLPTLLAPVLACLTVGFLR
Briefly: Inhibition of bovine carbonic anhydrase IV (CAIV).

In a further experiment the target is Carbonic anhydrase 1 (Homo sapiens, UniProt P00915). Put plainly: Inhibition of human carbonic anhydrase I (CAI).
For the next experiment, the target named is Carbonic anhydrase 2 (Homo sapiens, UniProt P00918). Put plainly: Inhibition of human carbonic anhydrase II (CAII).

Chain of Carbonic anhydrase 1 (P00915 whole entry): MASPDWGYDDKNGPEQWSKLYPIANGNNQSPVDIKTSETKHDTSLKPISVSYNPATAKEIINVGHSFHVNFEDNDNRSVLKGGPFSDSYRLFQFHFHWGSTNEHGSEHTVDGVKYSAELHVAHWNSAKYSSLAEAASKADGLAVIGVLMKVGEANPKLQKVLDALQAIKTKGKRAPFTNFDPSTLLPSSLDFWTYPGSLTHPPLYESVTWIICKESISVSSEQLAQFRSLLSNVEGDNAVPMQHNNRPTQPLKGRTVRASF

By Ki is commonly meant the dissociation constant of the complex between target and ligand, obtained from inhibition or displacement. Lower therefore signals higher affinity. Take `NS(=O)(=O)c1ccc(CC(=O)c2cccc(C(=O)O)n2)cc1`: affinity on Carbonic anhydrase 4 was put at a Ki of 79 nM.
As to `NS(=O)(=O)c1cc(S(N)(=O)=O)c(C(=O)c2cccc(C(=O)O)n2)c(Cl)c1C(=O)c1cccc(C(=O)O)n1`, the Ki at Carbonic anhydrase 1 is 500 nM; on Carbonic anhydrase 2, 12 nM; at Carbonic anhydrase 4 it was 69 nM.
In the case of `NS(=O)(=O)c1ccc(CON2C(=O)c3cccnc3C2=O)cc1`, the Ki on Carbonic anhydrase 1 was 2040 nM; on Carbonic anhydrase 2 it was 20 nM; on Carbonic anhydrase 4, 120 nM.
For the molecule `NS(=O)(=O)c1ccc(NC(=O)c2cccc(C(=O)O)n2)cc1`, the Ki was 21500 nM at Carbonic anhydrase 1 and 300 nM at Carbonic anhydrase 4.
In the case of `NS(=O)(=O)c1ccc(C(=O)c2cccc(C(=O)O)n2)c(F)c1`, the inhibition constant Ki was 540 nM at Carbonic anhydrase 1, 10 nM on Carbonic anhydrase 2 and 46 nM on Carbonic anhydrase 4.
Turning to `NS(=O)(=O)c1ccc(C(=O)c2cccc(C(=O)O)n2)c(I)c1`, the Ki on Carbonic anhydrase 1 was 610 nM; at Carbonic anhydrase 2, 33 nM; at Carbonic anhydrase 4, 70 nM.
On to `Nc1c(S(N)(=O)=O)cc(S(N)(=O)=O)c(N)c1Cl`, for which the values for the Ki at Carbonic anhydrase 1 and on Carbonic anhydrase 4 were 6100 nM and 175 nM, respectively.
On to `NS(=O)(=O)c1ccc(CCON2C(=O)c3cccnc3C2=O)cc1`, for which the Ki at Carbonic anhydrase 1 is 2000 nM; at Carbonic anhydrase 2, 15 nM; on Carbonic anhydrase 4, 105 nM.
In the case of `NS(=O)(=O)c1cccc(C(=O)c2cccc(C(=O)O)n2)c1`, the Ki at Carbonic anhydrase 1 is 20000 nM; on Carbonic anhydrase 2 it was 250 nM; on Carbonic anhydrase 4 it was 305 nM.
The like results for `NS(=O)(=O)c1ccc(C(=O)c2cccc(C(=O)O)n2)cc1` were, in that order, 15500 nM, 132 nM and 170 nM.
Take `NS(=O)(=O)c1ccc(CCC(=O)c2cccc(C(=O)O)n2)cc1`: the figures for the Ki on Carbonic anhydrase 1, on Carbonic anhydrase 2 and at Carbonic anhydrase 4 were 906 nM, 8.99 nM and 54 nM, respectively.
For `NS(=O)(=O)c1ccc(C(=O)c2cccc(C(=O)O)n2)c(Br)c1`, the inhibition constant Ki on Carbonic anhydrase 1 was 605 nM; on Carbonic anhydrase 4 it was 75 nM.
Consider `NS(=O)(=O)c1cc(S(N)(=O)=O)c(NC(=O)c2cccc(C(=O)O)n2)c(Cl)c1NC(=O)c1cccc(C(=O)O)n1`, for which the figures for the Ki at Carbonic anhydrase 1, at Carbonic anhydrase 2 and at Carbonic anhydrase 4 were 450 nM, 10 nM and 55 nM, respectively.
The like results for `NS(=O)(=O)c1cc(S(N)(=O)=O)c(C(=O)c2cccc(C(=O)O)n2)cc1Cl` were, in that order, 600 nM, 8.99 nM and 60 nM.
On the same counts, the results for `NS(=O)(=O)c1ccccc1C(=O)c1cccc(C(=O)O)n1` are 21000 nM, 280 nM and 310 nM.
Regarding `NS(=O)(=O)c1ccc(C(=O)c2cccc(C(=O)O)n2)c(Cl)c1`, the figures for the Ki on Carbonic anhydrase 1, on Carbonic anhydrase 2 and at Carbonic anhydrase 4 were 620 nM, 44 nM and 79 nM, respectively.
